Measurements from US20230131025A1, “QUINOLYL PHOSPHINE OXIDE COMPOUND, AND COMPOSITION AND APPLICATION THEREOF” (Betta Pharmaceuticals Co., Ltd., priority 2020, published 2023).

Assays:
Experiment in all cases: Cell proliferation experiment (CellTiter Glo, 72 hours)
Format in all cases: cell-based
[1] = target: Ba/F3-Δ19del/T790M/C797S (Homo sapiens, UniProt P00533, T790M/C797S, cells depend on it, form not given); details: read-out: Ba/F3/EGFR Δ19del/T790M/C797S IC50
Protocol: (§1) Experiment 2 Cell Proliferation Experiment
(§2) Suspension cells: Ba/F3 cells with stable overexpression of Δ19del/T790M/C797S mutant gene, named Ba/F3-Δ19del/T790M/C797S; Ba/F3 cells with overexpression of EGFR WT, named Ba/F3 EGFR WT.
(§3) RPMI 1640 with 10% FBS and 1% Penicillin-Streptomycin, or DMEM with 10% FBS and 1% Penicillin-Streptomycin.
(§4) a) Diluting compounds being tested (20 mM stock solutions), as an initial concentration, to 10 mM with 100% DMSO, followed by diluting compounds serially in a 3-fold gradient such that each compound is diluted into 12 concentrations (Cat #P-05525, Labcyte).
(§5) b) Diluting the above compound solutions for 100-fold with culture medium to prepare 10-fold working solution.
(§6) b) Seeding cells into 96-well cell culture plate at a density of 2000 or 3000 cells/well, with 135 μL/well.
(§7) a) Adding the compound prepared in step 2 to the cell plate at 15 μL per well, resulting in a final maximum concentration of 10000 nM or 1111 nM. The compounds is diluted serially in a 3-fold gradient such that each compound is diluted into 9 concentrations, wherein the final concentration of DMSO is 0.1%. Blank control wells are added with medium (0.1% DMSO).
(§8) b) Re-incubating the cells in an incubator for 72 hours. 5. Detection
(§9) a) Adding 50 μL of CTG reagent (CellTiter Glo kit, promega, Cat #G7573) to the 96-well cell culture plate.
(§10) b) Shaking the plate for 2 minutes and reacting at room temperature for 10 minutes.
(§11) c) Reading the luminescence signal value (Lum) using PerkinElmer reader.
(§12) The cell survival inhibition rate of each well was calculated. The data was analyzed by GraphPad Prism 6.0 software. The dose-response curve was obtained by fitting the data with a nonlinear regression equation. The IC50 of each compound was calculated as follows:
(§13) Cell survival inhibition rate (%)=(1−(Lumcompound tested−Lummedium control)/(Lumcell control−Lummedium control))×100%
(§14) Y=Min+(Max−Min)/(1+10^((Log IC50−X)*Slope));
(§15) X: logarithm of compound concentration. Y: cell survival inhibition rate.

[2] = target: Ba/F3 EGFR WT (Homo sapiens, UniProt P00533); details: read-out: BaF3 EGFR WT IC50
Ba/F3 EGFR WT, sequence (P00533 whole entry, change not shown): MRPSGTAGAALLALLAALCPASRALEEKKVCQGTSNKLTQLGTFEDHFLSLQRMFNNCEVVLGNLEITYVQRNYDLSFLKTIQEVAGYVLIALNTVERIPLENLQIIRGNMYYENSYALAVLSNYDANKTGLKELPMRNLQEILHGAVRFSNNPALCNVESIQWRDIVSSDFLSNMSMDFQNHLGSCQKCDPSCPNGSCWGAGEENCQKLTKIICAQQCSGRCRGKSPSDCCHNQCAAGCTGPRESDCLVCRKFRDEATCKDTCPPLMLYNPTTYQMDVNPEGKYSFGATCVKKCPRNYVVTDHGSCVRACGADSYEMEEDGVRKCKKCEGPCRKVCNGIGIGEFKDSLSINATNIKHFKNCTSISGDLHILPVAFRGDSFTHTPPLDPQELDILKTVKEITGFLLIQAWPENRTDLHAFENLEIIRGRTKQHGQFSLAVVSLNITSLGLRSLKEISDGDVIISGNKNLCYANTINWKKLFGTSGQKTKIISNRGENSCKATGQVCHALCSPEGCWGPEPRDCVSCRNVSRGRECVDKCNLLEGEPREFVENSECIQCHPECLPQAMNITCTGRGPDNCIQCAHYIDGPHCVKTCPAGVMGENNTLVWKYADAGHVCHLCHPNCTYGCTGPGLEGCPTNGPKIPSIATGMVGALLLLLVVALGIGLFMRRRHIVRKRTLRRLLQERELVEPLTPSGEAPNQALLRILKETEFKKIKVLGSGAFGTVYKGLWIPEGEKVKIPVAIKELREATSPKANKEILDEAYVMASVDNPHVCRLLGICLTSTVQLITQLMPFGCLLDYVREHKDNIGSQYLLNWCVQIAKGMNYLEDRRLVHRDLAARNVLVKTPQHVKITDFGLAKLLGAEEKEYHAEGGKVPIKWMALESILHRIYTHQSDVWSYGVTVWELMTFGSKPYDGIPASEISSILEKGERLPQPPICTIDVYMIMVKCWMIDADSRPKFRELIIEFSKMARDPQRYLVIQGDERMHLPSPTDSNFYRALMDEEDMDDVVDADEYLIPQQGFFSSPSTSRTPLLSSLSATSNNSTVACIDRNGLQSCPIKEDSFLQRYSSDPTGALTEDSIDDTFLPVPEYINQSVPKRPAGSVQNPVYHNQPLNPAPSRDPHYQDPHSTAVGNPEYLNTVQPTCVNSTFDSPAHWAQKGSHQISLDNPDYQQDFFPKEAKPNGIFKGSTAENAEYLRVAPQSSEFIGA
Protocol: as §1, §2, §3, §4, §5, §6, §7, §8, §9, §10, §11, §12, §13, §14, §15

[3] = test system: human epidermal cancer cells A431 carrying EGFR WT; details: Homo sapiens, A-431
Protocol: as §1
Adherent cells: human epidermal cancer cells A431 carrying EGFR WT.
as §3, §4, §5, §6, §7, §8, §9, §10, §11, §12, §13, §14, §15

Ba/F3-Δ19del/T790M/C797S, sequence (P00533 with tags, fused parts or gaps DEL746-750/T790M/C797S, form open): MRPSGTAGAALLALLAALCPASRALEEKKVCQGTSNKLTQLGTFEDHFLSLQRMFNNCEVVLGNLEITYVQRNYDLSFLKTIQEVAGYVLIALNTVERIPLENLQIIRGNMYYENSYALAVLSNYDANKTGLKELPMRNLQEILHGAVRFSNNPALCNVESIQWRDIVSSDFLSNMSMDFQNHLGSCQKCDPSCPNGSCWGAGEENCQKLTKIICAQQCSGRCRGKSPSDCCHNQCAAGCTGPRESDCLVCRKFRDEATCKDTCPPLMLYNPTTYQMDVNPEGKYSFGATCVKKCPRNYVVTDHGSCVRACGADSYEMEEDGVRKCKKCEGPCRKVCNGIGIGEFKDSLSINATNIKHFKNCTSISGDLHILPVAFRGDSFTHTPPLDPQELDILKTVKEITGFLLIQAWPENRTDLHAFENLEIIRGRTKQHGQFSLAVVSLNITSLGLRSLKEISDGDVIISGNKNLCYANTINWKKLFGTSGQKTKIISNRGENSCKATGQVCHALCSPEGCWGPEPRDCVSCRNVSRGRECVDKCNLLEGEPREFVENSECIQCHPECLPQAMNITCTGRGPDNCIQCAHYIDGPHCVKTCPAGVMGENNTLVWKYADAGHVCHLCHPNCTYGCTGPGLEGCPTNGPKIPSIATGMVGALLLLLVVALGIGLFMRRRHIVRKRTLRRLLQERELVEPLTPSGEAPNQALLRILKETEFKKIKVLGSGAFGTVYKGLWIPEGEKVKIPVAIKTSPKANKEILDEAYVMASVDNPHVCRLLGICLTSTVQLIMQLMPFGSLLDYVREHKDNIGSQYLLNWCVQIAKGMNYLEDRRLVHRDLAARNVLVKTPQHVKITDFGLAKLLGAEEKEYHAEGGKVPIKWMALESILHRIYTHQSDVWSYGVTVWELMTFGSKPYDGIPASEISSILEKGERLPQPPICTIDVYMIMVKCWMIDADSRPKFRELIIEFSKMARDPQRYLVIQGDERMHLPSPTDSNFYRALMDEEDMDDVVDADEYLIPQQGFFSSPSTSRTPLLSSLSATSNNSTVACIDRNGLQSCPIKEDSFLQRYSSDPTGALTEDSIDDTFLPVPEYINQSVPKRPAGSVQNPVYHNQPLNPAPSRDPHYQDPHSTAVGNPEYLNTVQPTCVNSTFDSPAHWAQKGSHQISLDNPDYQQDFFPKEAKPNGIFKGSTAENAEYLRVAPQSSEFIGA

| GI50 [1] | GI50 [2] | IC50 [3] | SMILES |
| --- | --- | --- | --- |
| 0.0109 µM | 0.0676 µM | 0.896 µM | COc1cc(N2CCN(c3cc(OC)c(Nc4ncc(Br)c(Nc5ccc6nc(C7CC7)ccc6c5P(C)(C)=O)n4)cc3-c3cnn(C)c3)CC2)ccn1 [Compound J-043] |
| 0.0135 µM | 0.13 µM | 0.71 µM | COc1cc(N2CCN(c3cnc(N(C)C)cn3)CC2)c(-c2cnn(C)c2)cc1Nc1ncc(Br)c(Nc2ccc3nc(C4CC4)ccc3c2P(C)(C)=O)n1 [Compound J-045, (6-((5-Bromo-2-((4-(4-(5-(dimethylamino)pyrazin-2-yl)piperazin-1-yl)-2-methoxy-5-(1-methyl-1H-pyrazol-4-yl)phenyl)amino)pyrimidin-4-yl)amino)-2-cyclopropylquinolin-5-yl)dimethylphosphine oxide] |
| 0.0076 µM | 0.052 µM | 1.1 µM | COc1cc(N2CCN(c3nccs3)CC2)c(-c2cnn(C)c2)cc1Nc1ncc(Br)c(Nc2ccc3nc(C4CC4)ccc3c2P(C)(C)=O)n1 [Compound J-048, (6-((5-Bromo-2-((2-methoxy-5-(1-methyl-1H-pyrazol-4-yl)-4-(4-(thiazol-2-yl)piperazin-1-yl)phenyl)amino)pyrimidin-4-yl)amino)-2-cyclopropylquinolin-5-yl)dimethylphosphine oxide] |
| 0.0085 µM | 0.109 µM | 2.29 µM | COc1cncc(N2CCN(c3cc(OC)c(Nc4ncc(Br)c(Nc5ccc6nc(C7CC7)ccc6c5P(C)(C)=O)n4)cc3-c3cnn(C)c3)CC2)n1 [Compound J-049, (6-((5-Bromo-2-((2-methoxy-4-(4-(6-methoxypyrazin-2-yl)piperazin-1-yl)-5-(1-methyl-1H-pyrazol-4-yl)phenyl)amino)pyrimidin-4-yl)amino)-2-cyclopropylquinolin-5-yl)dimethylphosphine oxide] |
| 0.0008 µM | 0.038 µM | 1.1 µM | COc1cc(N2CCN(c3cccnc3)CC2)c(-c2cnn(C)c2)cc1Nc1ncc(Br)c(Nc2ccc3nc(C4CC4)ccc3c2P(C)(C)=O)n1 [Compound J-056, (6-((5-Bromo-2-((2-methoxy-5-(1-methyl-1H-pyrazol-4-yl)-4-(4-(pyridin-3-yl)piperazin-1-yl)phenyl)amino)pyrimidin-4-yl)amino)-2-cyclopropylquinolin-5-yl)dimethylphosphine oxide] |
| 0.003 µM | 0.054 µM | 0.328 µM | COc1cc(N2CCN(c3ccncc3)CC2)c(-c2cnn(C)c2)cc1Nc1ncc(Br)c(Nc2ccc3nc(C4CC4)ccc3c2P(C)(C)=O)n1 [Compound J-057, (6-((5-Bromo-2-((2-methoxy-5-(1-methyl-1H-pyrazol-4-yl)-4-(4-(pyridin-4-yl)piperazin-1-yl)phenyl)amino)pyrimidin-4-yl)amino)-2-cyclopropylquinolin-5-yl)dimethylphosphine oxide] |
| 0.0058 µM | 0.117 µM | 0.649 µM | COc1cc(N2CCN(c3cnccn3)CC2)c(-c2cnn(C)c2)cc1Nc1ncc(Br)c(Nc2ccc3nc(C4CC4)ccc3c2P(C)(C)=O)n1 [Compound J-058, (6-((5-Bromo-2-((2-methoxy-5-(1-methyl-1H-pyrazol-4-yl)-4-(4-(pyrazin-2-yl)piperazin-1-yl)phenyl)amino)pyrimidin-4-yl)amino)-2-cyclopropylquinolin-5-yl)dimethylphosphine oxide] |
| 0.0023 µM | 0.054 µM | 0.366 µM | COc1cc(N2CCN(c3ccncn3)CC2)c(-c2cnn(C)c2)cc1Nc1ncc(Br)c(Nc2ccc3nc(C4CC4)ccc3c2P(C)(C)=O)n1 [Compound J-060, (6-((5-Bromo-2-((2-methoxy-5-(1-methyl-1H-pyrazol-4-yl)-4-(4-(pyrimidin-4-yl)piperazin-1-yl)phenyl)amino)pyrimidin-4-yl)amino)-2-cyclopropylquinolin-5-yl)dimethylphosphine oxide] |

Second part, the molecule before the results:

| SMILES | GI50 [1] | GI50 [2] | IC50 [3] |
| --- | --- | --- | --- |
| COc1cc(Nc2ncc(Br)c(Nc3ccc4nc(C5CC5)ccc4c3P(C)(C)=O)n2)c(C)cc1N1CCC(OC)CC1 [Compound J-033, (6-((5-Bromo-2-((5-methoxy-4-(4-methoxypiperidin-1-yl)-2-methylphenyl)amino)pyrimidin-4-yl)amino)-2-cyclopropylquinolin-5-yl)dimethylphosphine oxide] | 0.0129 µM | 0.611 µM | > 10 µM |
| COc1ncc(N2CCN(c3cc(OC)c(Nc4ncc(Br)c(Nc5ccc6nc(C7CC7)ccc6c5P(C)(C)=O)n4)cc3-c3cnn(C)c3)CC2)cn1 [Compound J-044, (6-((5-Bromo-2-((2-methoxy-4-(4-(2-methoxypyrimidin-5-yl)piperazin-1-yl)-5-(1-methyl-1H-pyrazol-4-yl)phenyl)amino)pyrimidin-4-yl)amino)-2-cyclopropylquinolin-5-yl)dimethylphosphine oxide] | 0.001 µM | 0.0252 µM | 0.432 µM |
| COc1cc(N2CCC(N3CCN(C)CC3)CC2)c(-c2cnn(C)n2)cc1Nc1ncc(Br)c(Nc2ccc3nc(C4CC4)ccc3c2P(C)(C)=O)n1 [Compound J-046, (6-((5-Bromo-2-((2-methoxy-5-(2-methyl-2H-1,2,3-triazol-4-yl)-4-(4-(4-methylpiperazin-1-yl)piperidin-1-yl)phenyl)amino)pyrimidin-4-yl)amino)-2-cyclopropylquinolin-5-yl)dimethylphosphine oxide] | 0.0012 µM | 0.117 µM | 0.475 µM |
| COc1cc(N2CCN(c3ccncc3)CC2)c(-c2cnn(C)n2)cc1Nc1ncc(Br)c(Nc2ccc3nc(C4CC4)ccc3c2P(C)(C)=O)n1 [Compound J-047, (6-((5-Bromo-2-((2-methoxy-5-(2-methyl-2H-1,2,3-triazol-4-yl)-4-(4-(pyridin-4-yl)piperazin-1-yl)phenyl)amino)pyrimidin-4-yl)amino)-2-cyclopropylquinolin-5-yl)dimethylphosphine oxide] | 0.0005 µM | 0.021 µM | 0.176 µM |
| COc1cc(N2CCN(c3cccc(=O)n3C)CC2)c(-c2cnn(C)c2)cc1Nc1ncc(Br)c(Nc2ccc3nc(C4CC4)ccc3c2P(C)(C)=O)n1 [Compound J-050, 6-(4-(4-((5-Bromo-4-((2-cyclopropyl-5-(dimethylphosphoryl)quinolin-6-yl)amino)pyrimidin-2-yl)amino)-5-methoxy-2-(1-methyl-1H-pyrazol-4-yl)phenyl)piperazin-1-yl)-1-methylpyridin-2(1H)-one] | 0.0018 µM | 0.0422 µM | 0.861 µM |
| COc1cc(NCC2CCN(C)CC2)c(-c2cnn(C)c2)cc1Nc1ncc(Br)c(Nc2ccc3nc(C4CC4)ccc3c2P(C)(C)=O)n1 [Compound J-052] | 0.0026 µM | 0.123 µM | 0.279 µM |
| COc1cc(NCC2CCOCC2)c(-c2cnn(C)c2)cc1Nc1ncc(Br)c(Nc2ccc3nc(C4CC4)ccc3c2P(C)(C)=O)n1 [Compound J-053, (6-((5-Bromo-2-((2-methoxy-5-(1-methyl-1H-pyrazol-4-yl)-4-(((tetrahydro-2H-pyran-4-yl)methyl)amino)phenyl)amino)pyrimidin-4-yl)amino)-2-cyclopropylquinolin-5-yl)dimethylphosphine oxide] | 0.0039 µM | 0.054 µM | 0.753 µM |
| COc1cc(N2CCN(C)CC2)c(-c2cnn(C)c2)cc1Nc1ncc(Br)c(Nc2ccc3nc(C4CC4)ccc3c2P(C)(C)=O)n1 [Compound J-054, (6-((5-Bromo-2-((2-methoxy-5-(1-methyl-1H-pyrazol-4-yl)-4-(4-methylpiperazin-1-yl)phenyl)amino)pyrimidin-4-yl)amino)-2-cyclopropylquinolin-5-yl)dimethylphosphine oxide] | 0.0008 µM | 0.0158 µM | 0.143 µM |
| COc1cc(N2CCN(C3CCCC3)CC2)c(-c2cnn(C)c2)cc1Nc1ncc(Br)c(Nc2ccc3nc(C4CC4)ccc3c2P(C)(C)=O)n1 [Compound J-055, (6-((5-Bromo-2-((4-(4-cyclopentylpiperazin-1-yl)-2-methoxy-5-(1-methyl-1H-pyrazol-4-yl)phenyl)amino)pyrimidin-4-yl)amino)-2-cyclopropylquinolin-5-yl)dimethylphosphine oxide] | 0.0124 µM | 0.079 µM |  |
| COc1cc(N2CCC(N3CCOCC3)CC2)c(-c2cnn(C)c2)cc1Nc1ncc(Br)c(Nc2ccc3nc(C4CC4)ccc3c2P(C)(C)=O)n1 [Compound J-059, (6-((5-Bromo-2-((2-methoxy-5-(1-methyl-1H-pyrazol-4-yl)-4-(4-morpholinopiperidine-1-yl)phenyl)amino)pyrimidin-4-yl)amino)-2-cyclopropylquinolin-5-yl)dimethylphosphine oxide] | 0.0004 µM | 0.0106 µM | 0.264 µM |
